Assay results reported in patent US20090018162A1, “USE OF 6-(3-CHLORO-2-FLUOROBENZYL)-1-[(2S)-1-HYDROXY-3-METHYLBUTAN-2-YL]-7-METHOXY-4-OXO-1,4-DIHYDROQUINOLINE-3-CARBOXYLIC ACID OR SALT THEREOF FOR TREATING RETROVIRUS INFECTION” (priority 2006, published 2009).
Where a name gives a salt, the structure may show the parent alone. Read-outs that look alike come from different tables or passages of the source.

What was measured:
human PBMCs [1] = assay: MTS staining for PBMC viability (cytotoxicity); conditions: read-out: TC50, PBMCs, MTS
in vitro = conditions: human
[2] = test system: HIV-1 macrophage-tropic virus strains; assay: microbe, parasite or virus in culture; conditions: in Homo sapiens
HIV-1 clinical isolates [3] = test system: HIV-1 clinical isolates
human PBMCs [4] = conditions: 7 days
[5] = test system: drug-resistant HIV-1 isolates; assay: Anti-HIV efficacy in fresh human PBMCs, drug-resistant HIV-1 isolates; conditions: for IC50: Human immunodeficiency virus 1, PBMC, in Homo sapiens
[6] = MTS cytotoxicity in monocyte/macrophage cultures; type: cell-based; conditions: human, TC50
Method: (§1) Anti-HIV Efficacy Evaluation in Fresh Human Monocyte/Macrophage. Monocytes/macrophages were allowed to adhere to the interior 60 wells of a 96 well flat bottomed plate for 2 to 18 hours at 37° C., 5% CO2. Following 6 to 14 days in culture, the monocyte/macrophage cultures were washed 3 times to remove any non-adherent cells and serially diluted test compounds were added followed by the addition of a pre-titered amount of HIV. Cultures were washed a final time by media removal 24 hours post infection, fresh compound added and the cultures continued for an additional six days. […] At assay termination, virus replication was measured by collecting cell-free supernatant samples which were analyzed for HIV p24 antigen content using a commercially available p24 ELISA assay (Coulter). […] MTS staining for PBMC viability to measure cytotoxicity. […] The mitochondrial enzymes of metabolically active cells metabolize MTS to yield a soluble formazan product. This allows the rapid quantitative analysis of cell viability and compound cytotoxicity. […] At termination of the assay, 20 μL of MTS reagent was added per well. The microtiter plates were then incubated 4-6 hrs at 37° C. The incubation intervals were chosen based on empirically determined times for optimal dye reduction. […] Data analysis.

[7] = test system: human monocytes/macrophages; assay: MTS cytotoxicity in monocyte/macrophage cultures; type: cell-based; conditions: 7 days
Method: as §1

[8] = test system: HIV-1 macrophage-tropic virus strains
HIV-2 CDC 310319 [9] = conditions: HIV-2 CDC 310319 in PBMCs
HIV-2 CDC 310319 [10] = assay: microbe, parasite or virus in culture; conditions: Human immunodeficiency virus 2, PBMC
HIV-1 clinical isolates [11] = assay: microbe, parasite or virus in culture; conditions: Human immunodeficiency virus 1, PBMC

Cc1c(O)cccc1C(=O)N[C@@H](CSc1ccccc1)[C@H](O)CN1C[C@H]2CCCC[C@H]2C[C@H]1C(=O)NC(C)(C)C [Nelfinavir, nelfinavir mesylate]
CC50 (human PBMCs [1]; MDR 807 assay): > 1000 nM | CC50 (human PBMCs [1]; MDR 1385 assay): > 1000 nM | CC50 (human PBMCs [1]; MDR 3761 assay): > 1000 nM | CC50 (in vitro): > 1000 nM | CC50 at 7 days (in vitro): > 1000 nM | IC50 ([2]; Human immunodeficiency virus 1, BAL, Macrophage, HIV-1 Ba-L in macrophages): 36.3 nM | IC50 ([2]; Human immunodeficiency virus 1, Macrophage, HIV-1 ADA in macrophages): 45.2 nM | TI (TC50/IC50) (HIV-1 clinical isolates [3]; HIV-1 96USHIPS7 in PBMCs): >38.8 | TI (TC50/IC50) (HIV-1 clinical isolates [3]; HIV-1 BFC01 in PBMCs): >1010.1 | TI (TC50/IC50) (HIV-1 clinical isolates [3]; HIV-1 BR/92/021 in PBMCs): >14.2 | TI (TC50/IC50) (HIV-1 clinical isolates [3]; HIV-1 BR/92/025 in PBMCs): >9901.0 | TI (TC50/IC50) (HIV-1 clinical isolates [3]; HIV-1 BR/93/017 in PBMCs): >487.8 | TI (TC50/IC50) (HIV-1 clinical isolates [3]; HIV-1 BR/93/020 in PBMCs): >61.0 | TI (TC50/IC50) (HIV-1 clinical isolates [3]; HIV-1 BR/93/022 in PBMCs): >49.8 | TI (TC50/IC50) (HIV-1 clinical isolates [3]; HIV-1 CMU 02 in PBMCs): >44.1 | TI (TC50/IC50) (HIV-1 clinical isolates [3]; HIV-1 JV 1083 in PBMCs): >71.4 | TI (TC50/IC50) (HIV-1 clinical isolates [3]; HIV-1 RW/92/016 in PBMCs): >74.6 | TI (TC50/IC50) (HIV-1 clinical isolates [3]; HIV-1 UG/92/046 in PBMCs): >36.1 | CC50 (human PBMCs [4]): > 1000 nM | TI (TC50/IC50) ([5]; HIV-1 52-52 in PBMCs): >10.5 | TI (TC50/IC50) ([5]; HIV-1 144-44 in PBMCs): >6.05 | TI (TC50/IC50) ([5]; HIV-1 1064-52 in PBMCs): >1.19 | TI (TC50/IC50) ([5]; HIV-1 MDR 807 in PBMCs): >7.41 | IC50 ([5]; HIV-1 52-52 (protease-inhibitor resistant) in PBMCs): 95 nM | IC50 ([5]; against several viruses (e.g., MDR 1385, MDR 3761) in PBMCs): > 1000 nM | IC50 ([5]; multi-drug-resistant HIV-1 MDR 769 in PBMCs): > 1000 nM | IC50 ([5]; multi-drug-resistant HIV-1 MDR 807 in PBMCs): 135 nM | IC50 ([5]; multi-drug-resistant HIV-1 MDR 1385 in PBMCs): > 1000 nM | IC50 ([5]; multi-drug-resistant HIV-1 MDR 3761 in PBMCs): > 1000 nM | CC50 at 7 days [6]: > 10000 nM | CC50 [7]: > 10000 nM | TI (TC50/IC50) ([8]; HIV-1 ADA in macrophages): >221.2 | TI (TC50/IC50) ([8]; HIV-1 Ba-L in macrophages): >275.5 | TI (TC50/IC50) (HIV-2 CDC 310319 [9]): >62.1 | IC50 (HIV-2 CDC 310319 [10]): 16.1 nM | IC50 (HIV-1 clinical isolates [11]; HIV-1 96USHIPS7 (subtype /B, R5) in PBMCs): 25.8 nM | IC50 (HIV-1 clinical isolates [11]; HIV-1 BR/92/021 (subtype B/B, R5) in PBMCs): 70.5 nM | IC50 (HIV-1 clinical isolates [11]; HIV-1 BR/93/017 (subtype B/B, R5) in PBMCs): 2.05 nM | IC50 (HIV-1 clinical isolates [11]; HIV-1 BR/93/020 (subtype F/F, R5/X4) in PBMCs): 16.4 nM | IC50 (HIV-1 clinical isolates [11]; HIV-1 BR/93/022 (subtype /B, R5) in PBMCs): 20.1 nM | IC50 (HIV-1 clinical isolates [11]; HIV-1 CMU 02 (subtype /EA, X4) in PBMCs): 22.7 nM | IC50 (HIV-1 clinical isolates [11]; HIV-1 JV 1083 (subtype /G, R5) in PBMCs): 14 nM | IC50 (HIV-1 clinical isolates [11]; HIV-1 RW/92/016 (subtype A/A, R5) in PBMCs): 13.4 nM | IC50 (HIV-1 clinical isolates [11]; HIV-1 UG/92/046 (subtype D/D, X4) in PBMCs): 27.7 nM

enfuvirtide
CC50 at 7 days (in vitro): > 10000 nM | CC50 (human PBMCs [4]): > 10000 nM
